# Experimental data as given in patent US9598414B2, “Substituted benzo[5,6]azepino[3,2,1-hi]pyrido[4,3-b]indoles and substituted benzo[6,7][1,4]oxazepino[2,3,4-hi]pyrido[4,3-b]indoles for treating CNS disorders” (Daya Drug Discoveries, Inc., priority 2013, dated 2017).
# Key:
# Serotonin 5-HT1A = biological target: T1, Serotonin 5-HT1A (Homo sapiens, UniProt P08908); experiment: Receptor binding, 5-HT1A
# T1 sequence (P08908 1-422): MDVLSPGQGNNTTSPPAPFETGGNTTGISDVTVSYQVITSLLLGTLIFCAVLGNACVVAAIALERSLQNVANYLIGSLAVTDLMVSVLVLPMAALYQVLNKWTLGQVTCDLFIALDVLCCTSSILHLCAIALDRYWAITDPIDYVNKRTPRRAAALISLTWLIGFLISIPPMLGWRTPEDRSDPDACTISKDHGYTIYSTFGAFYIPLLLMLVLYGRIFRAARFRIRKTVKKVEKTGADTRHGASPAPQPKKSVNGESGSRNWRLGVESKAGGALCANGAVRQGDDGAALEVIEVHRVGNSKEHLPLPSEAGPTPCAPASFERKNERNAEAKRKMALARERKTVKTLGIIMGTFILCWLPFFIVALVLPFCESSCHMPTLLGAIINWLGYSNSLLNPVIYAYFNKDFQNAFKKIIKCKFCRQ
# Serotonin 5-HT1B = Serotonin 5-HT1B (Homo sapiens, UniProt P28222); experiment: Receptor binding, 5-HT1B
# Serotonin 5-HT1D = Serotonin 5-HT1D (Homo sapiens, UniProt P28221); experiment: Receptor binding, 5-HT1D
# Serotonin 5-HT2A = Serotonin 5-HT2A (Homo sapiens, UniProt P28223); experiment: Receptor binding, 5-HT2A
# Serotonin 5-HT2B = Serotonin 5-HT2B (Homo sapiens, UniProt P41595); experiment: Receptor binding, 5-HT2B
# Serotonin 5-HT7 = Serotonin 5-HT7 (Homo sapiens, UniProt P34969); experiment: Receptor binding, 5-HT7
# Dopamine D1 = Dopamine D1 (Homo sapiens, UniProt P21728); experiment: Receptor binding, D1
# Dopamine D2 = Dopamine D2 (Homo sapiens, UniProt P14416); experiment: Receptor binding, D2
# Dopamine D4 = Dopamine D4 (Homo sapiens, UniProt P21917); experiment: Receptor binding, D4
# Dopamine D5 = Dopamine D5 (Homo sapiens, UniProt P21918); experiment: Receptor binding, D5
# α-Adrenergic α1D = α-Adrenergic α1D (Homo sapiens, UniProt P25100); experiment: Receptor binding, α1D
# α-Adrenergic α2C = biological target: T2, α-Adrenergic α2C (Homo sapiens, UniProt P18825); experiment: Receptor binding, α2C
# T2 sequence (P18825 1-462): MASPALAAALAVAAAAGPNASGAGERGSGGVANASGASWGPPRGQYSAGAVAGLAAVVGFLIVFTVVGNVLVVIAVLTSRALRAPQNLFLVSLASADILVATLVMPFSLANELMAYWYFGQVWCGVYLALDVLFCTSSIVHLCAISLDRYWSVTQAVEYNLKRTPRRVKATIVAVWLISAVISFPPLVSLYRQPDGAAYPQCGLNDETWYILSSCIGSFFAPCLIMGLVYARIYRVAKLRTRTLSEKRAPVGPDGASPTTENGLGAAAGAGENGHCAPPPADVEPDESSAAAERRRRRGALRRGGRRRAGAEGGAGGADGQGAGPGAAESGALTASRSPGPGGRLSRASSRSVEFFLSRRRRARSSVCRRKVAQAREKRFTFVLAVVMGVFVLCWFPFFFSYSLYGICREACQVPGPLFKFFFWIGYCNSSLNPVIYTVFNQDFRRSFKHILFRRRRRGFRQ
# β-Adrenergic β1 = β-Adrenergic β1 (Homo sapiens, UniProt P08588); experiment: Receptor binding, β1
# Histamine H1 = Histamine H1 (Homo sapiens, UniProt P35367); experiment: Receptor binding, H1; details: H1
# Histamine H3 = Histamine H3 (Homo sapiens, UniProt Q9Y5N1); experiment: Receptor binding, H3
# Sigma σ1 = Sigma σ1 (Homo sapiens, UniProt Q99720); experiment: Receptor binding, σ1
# Opioid δ = Opioid δ (Homo sapiens, UniProt P41143); experiment: Receptor binding, opioid δ
# Opioid κ = Opioid κ (Homo sapiens, UniProt P41145); experiment: Receptor binding, opioid κ
# Opioid μ = Opioid μ (Homo sapiens, UniProt P35372); experiment: Receptor binding, opioid μ
# Muscarinic M2 = Muscarinic M2 (Homo sapiens, UniProt P08172); experiment: Receptor binding, M2
# Muscarinic M3 = Muscarinic M3 (Homo sapiens, UniProt P20309); experiment: Receptor binding, M3
# Muscarinic M4 = Muscarinic M4 (Homo sapiens, UniProt P08173); experiment: Receptor binding, M4
# Dopamine transporter = Dopamine transporter (Homo sapiens, UniProt Q01959); experiment: Receptor binding, dopamine transporter; details: Transporters: Dopamine
# [1] = biological target: Norepinephrine transporter (Homo sapiens, UniProt P23975); experiment: Receptor binding, norepinephrine transporter; details: Transporters: Norepinephrine
# dopamine receptors = experiment: Receptor binding, dopamine receptors; details: any of the dopamine receptors, summary of Table 1
# rats = experiment: Forced swim test (depression model); assay type: in vivo; details: 10 mg/kg i.p., 1 hour before test, versus imipramine 10 mg/kg, FIG. 5
# Serotonin 5-HT1D, sequence (P28221 whole entry): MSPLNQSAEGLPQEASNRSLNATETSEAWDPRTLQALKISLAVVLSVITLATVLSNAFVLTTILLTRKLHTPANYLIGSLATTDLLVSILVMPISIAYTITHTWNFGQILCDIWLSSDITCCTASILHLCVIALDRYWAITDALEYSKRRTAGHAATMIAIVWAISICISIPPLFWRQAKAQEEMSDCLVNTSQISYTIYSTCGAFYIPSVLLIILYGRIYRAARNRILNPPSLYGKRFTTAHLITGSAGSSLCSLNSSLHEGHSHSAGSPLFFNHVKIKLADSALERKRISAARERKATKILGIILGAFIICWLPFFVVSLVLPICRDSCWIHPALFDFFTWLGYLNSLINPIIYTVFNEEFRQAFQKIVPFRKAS
# Serotonin 5-HT7, sequence (P34969 whole entry): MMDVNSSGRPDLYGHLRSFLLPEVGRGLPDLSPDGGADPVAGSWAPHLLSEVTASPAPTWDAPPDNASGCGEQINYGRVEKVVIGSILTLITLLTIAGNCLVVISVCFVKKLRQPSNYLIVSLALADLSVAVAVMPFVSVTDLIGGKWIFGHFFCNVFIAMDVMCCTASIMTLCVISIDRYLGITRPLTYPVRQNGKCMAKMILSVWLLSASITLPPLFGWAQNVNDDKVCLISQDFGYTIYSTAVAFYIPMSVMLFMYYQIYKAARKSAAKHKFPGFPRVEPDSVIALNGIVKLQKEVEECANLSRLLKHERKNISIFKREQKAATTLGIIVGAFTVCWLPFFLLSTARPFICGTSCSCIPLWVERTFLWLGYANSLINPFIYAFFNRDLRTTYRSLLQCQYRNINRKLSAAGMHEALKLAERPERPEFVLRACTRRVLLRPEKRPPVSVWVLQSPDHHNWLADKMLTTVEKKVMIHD
# Norepinephrine transporter, sequence (P23975 whole entry): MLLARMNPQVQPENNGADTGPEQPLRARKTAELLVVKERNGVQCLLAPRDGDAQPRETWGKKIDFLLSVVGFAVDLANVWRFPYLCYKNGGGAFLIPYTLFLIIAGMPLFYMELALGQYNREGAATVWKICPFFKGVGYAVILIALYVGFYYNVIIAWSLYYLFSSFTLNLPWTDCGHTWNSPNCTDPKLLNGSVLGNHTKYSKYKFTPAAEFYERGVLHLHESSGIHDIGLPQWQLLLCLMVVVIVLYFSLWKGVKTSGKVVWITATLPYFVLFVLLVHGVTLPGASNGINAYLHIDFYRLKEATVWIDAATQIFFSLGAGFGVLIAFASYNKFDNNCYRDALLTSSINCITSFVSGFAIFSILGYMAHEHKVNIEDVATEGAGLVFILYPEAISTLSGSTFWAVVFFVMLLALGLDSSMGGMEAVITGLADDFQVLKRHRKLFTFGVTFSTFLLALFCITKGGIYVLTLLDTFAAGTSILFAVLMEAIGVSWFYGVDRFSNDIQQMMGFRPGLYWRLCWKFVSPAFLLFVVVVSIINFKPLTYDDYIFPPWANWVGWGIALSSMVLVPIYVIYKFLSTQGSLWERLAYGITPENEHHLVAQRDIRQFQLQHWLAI
# Sigma σ1, sequence (Q99720 whole entry): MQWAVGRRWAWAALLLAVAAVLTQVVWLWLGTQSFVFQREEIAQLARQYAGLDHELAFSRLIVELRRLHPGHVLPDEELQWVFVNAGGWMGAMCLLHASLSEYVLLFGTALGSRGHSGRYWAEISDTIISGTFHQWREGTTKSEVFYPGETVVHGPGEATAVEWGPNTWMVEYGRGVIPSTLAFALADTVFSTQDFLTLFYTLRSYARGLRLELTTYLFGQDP
# Serotonin 5-HT2B, sequence (P41595 whole entry): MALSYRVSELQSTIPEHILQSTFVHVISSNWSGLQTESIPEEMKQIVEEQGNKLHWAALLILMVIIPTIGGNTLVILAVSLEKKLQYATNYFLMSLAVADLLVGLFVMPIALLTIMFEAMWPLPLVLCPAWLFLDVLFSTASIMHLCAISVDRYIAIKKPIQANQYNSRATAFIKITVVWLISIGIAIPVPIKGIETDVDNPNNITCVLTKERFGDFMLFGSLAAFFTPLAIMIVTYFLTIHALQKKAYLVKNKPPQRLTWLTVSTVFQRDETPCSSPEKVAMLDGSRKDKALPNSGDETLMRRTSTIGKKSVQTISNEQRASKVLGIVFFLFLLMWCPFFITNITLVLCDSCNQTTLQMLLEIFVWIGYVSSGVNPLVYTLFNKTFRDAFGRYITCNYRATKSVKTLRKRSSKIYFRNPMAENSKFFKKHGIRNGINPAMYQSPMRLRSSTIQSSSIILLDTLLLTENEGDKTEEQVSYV
# Serotonin 5-HT2A, sequence (P28223 whole entry): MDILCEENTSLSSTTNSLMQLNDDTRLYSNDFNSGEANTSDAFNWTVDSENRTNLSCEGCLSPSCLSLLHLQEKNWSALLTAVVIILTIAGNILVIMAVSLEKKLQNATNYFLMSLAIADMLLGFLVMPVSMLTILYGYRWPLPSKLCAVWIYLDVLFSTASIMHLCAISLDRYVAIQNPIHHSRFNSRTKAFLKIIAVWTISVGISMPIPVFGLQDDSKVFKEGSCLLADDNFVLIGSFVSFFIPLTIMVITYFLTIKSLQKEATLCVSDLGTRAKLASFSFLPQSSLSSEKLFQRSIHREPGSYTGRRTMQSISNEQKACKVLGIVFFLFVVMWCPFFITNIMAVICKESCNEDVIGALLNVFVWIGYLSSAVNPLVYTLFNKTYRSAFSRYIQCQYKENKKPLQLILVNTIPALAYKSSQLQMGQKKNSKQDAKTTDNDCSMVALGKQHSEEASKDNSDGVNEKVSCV
# Dopamine D1, sequence (P21728 whole entry): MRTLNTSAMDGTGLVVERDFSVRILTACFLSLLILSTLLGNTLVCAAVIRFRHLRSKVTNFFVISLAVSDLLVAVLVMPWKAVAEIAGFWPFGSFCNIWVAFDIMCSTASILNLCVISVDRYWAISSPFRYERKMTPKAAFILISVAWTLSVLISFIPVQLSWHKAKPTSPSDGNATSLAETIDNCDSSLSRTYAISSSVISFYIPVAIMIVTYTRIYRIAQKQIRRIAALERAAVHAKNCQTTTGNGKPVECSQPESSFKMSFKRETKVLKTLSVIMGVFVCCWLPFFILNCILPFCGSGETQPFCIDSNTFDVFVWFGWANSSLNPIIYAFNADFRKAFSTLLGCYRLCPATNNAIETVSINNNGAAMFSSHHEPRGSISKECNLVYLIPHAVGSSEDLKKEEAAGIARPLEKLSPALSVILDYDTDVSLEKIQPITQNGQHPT
# Opioid κ, sequence (P41145 whole entry): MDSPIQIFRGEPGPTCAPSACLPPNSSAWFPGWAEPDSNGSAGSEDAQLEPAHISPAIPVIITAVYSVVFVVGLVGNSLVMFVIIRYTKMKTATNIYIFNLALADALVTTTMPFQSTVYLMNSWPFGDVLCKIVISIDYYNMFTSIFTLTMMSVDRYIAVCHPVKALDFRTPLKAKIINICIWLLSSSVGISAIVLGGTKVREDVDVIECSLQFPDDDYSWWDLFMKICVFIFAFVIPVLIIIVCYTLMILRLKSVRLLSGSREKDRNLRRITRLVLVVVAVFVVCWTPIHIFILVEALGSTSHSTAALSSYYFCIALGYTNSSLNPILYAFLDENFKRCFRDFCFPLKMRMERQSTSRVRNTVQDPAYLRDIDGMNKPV
# Dopamine D5, sequence (P21918 whole entry): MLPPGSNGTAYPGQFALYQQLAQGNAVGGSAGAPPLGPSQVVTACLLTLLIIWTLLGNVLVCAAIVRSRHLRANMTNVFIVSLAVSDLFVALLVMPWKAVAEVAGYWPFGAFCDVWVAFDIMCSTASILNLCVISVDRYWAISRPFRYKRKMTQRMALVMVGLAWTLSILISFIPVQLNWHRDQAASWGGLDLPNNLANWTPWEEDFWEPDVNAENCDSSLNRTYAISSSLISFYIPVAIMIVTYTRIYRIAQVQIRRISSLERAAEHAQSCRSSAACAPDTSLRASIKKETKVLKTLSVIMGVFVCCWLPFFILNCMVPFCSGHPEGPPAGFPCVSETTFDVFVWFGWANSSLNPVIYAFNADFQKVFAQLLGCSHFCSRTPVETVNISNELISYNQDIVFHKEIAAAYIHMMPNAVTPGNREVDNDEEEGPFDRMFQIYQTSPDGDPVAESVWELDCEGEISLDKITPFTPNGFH
# β-Adrenergic β1, sequence (P08588 whole entry): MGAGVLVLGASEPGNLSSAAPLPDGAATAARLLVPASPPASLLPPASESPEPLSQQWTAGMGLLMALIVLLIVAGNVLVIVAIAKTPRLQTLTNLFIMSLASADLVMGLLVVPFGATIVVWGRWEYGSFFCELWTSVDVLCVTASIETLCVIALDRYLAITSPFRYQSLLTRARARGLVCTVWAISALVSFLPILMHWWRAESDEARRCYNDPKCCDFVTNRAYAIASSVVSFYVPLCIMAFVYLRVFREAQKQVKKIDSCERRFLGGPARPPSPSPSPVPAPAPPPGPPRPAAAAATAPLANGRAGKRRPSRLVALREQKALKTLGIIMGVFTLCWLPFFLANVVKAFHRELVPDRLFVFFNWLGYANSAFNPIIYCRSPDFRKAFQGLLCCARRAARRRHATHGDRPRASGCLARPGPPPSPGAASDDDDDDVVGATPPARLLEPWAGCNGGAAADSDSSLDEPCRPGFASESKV
# Dopamine D2, sequence (P14416 whole entry): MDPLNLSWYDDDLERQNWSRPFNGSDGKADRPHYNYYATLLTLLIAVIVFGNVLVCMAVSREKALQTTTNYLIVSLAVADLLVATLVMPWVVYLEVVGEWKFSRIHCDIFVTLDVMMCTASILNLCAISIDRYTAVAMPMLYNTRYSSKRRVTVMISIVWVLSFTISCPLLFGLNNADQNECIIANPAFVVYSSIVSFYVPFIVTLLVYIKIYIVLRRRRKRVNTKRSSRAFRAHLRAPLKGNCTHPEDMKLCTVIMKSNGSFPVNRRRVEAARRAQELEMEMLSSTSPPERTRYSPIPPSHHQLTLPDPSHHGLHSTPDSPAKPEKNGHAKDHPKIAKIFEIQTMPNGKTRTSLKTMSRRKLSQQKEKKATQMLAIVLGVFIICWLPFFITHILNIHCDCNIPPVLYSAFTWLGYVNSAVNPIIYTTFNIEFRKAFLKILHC
smiles,measurement,setting,value
CN1CCc2c(c3cccc4c3n2Cc2ccccc2O4)C1 [Compound 13b],Ki,Serotonin 5-HT1A,32 nM
same,"binding, in words",Serotonin 5-HT1A; summary of Table 1,binds strongly
same,Ki,Serotonin 5-HT1B,738 nM
same,Ki,Serotonin 5-HT1D,385 nM
same,"binding, in words",Serotonin 5-HT1D; summary of Table 1,moderate binding
same,Ki,Serotonin 5-HT2A,927 nM
same,Ki,Serotonin 5-HT2B,195 nM
same,Ki,Serotonin 5-HT7; 5-HT7,258 nM
same,"binding, in words","Serotonin 5-HT7; 5-HT7, text summary of Table 1",moderate binding
same,Ki,Dopamine D1,> 10000 nM
same,Ki,Dopamine D2,> 10000 nM
same,Ki,Dopamine D4,> 10000 nM
same,Ki,Dopamine D5,> 10000 nM
same,Ki,α-Adrenergic α1D,5030 nM
same,Ki,α-Adrenergic α2C,507 nM
same,Ki,β-Adrenergic β1,> 10000 nM
same,Ki,Histamine H1,733 nM
same,Ki,Histamine H3,> 10000 nM
same,Ki,Sigma σ1,220 nM
same,Ki,Opioid δ,310 nM
same,Ki,Opioid κ,> 10000 nM
same,Ki,Opioid μ,> 10000 nM
same,Ki,Muscarinic M2,> 10000 nM
same,Ki,Muscarinic M3,> 10000 nM
same,Ki,Muscarinic M4,> 10000 nM
same,Ki,Dopamine transporter,> 10000 nM
same,Ki,[1],1950 nM
same,"binding, in words",dopamine receptors,neither of the two compounds 13a and 13b binds significantly
same,"antidepressive activity (immobility, forced swim test)",rats,comparable to imipramine
